What all share (format): in vivo
For one test, the system named is bermudagrass. Put plainly: Fertilizer efficacy on bermudagrass (quality, color, clipping weight). The note with it: LSG at high rate (Tables 8 and 9). How it is done: (§1) In another embodiment, the fertilizers of the various embodiments described herein were compared to industry standards for efficacy and phytotoxicity on St. Augustinegrass and bermudagrass. In another embodiment the experimental fertilizers were evaluated for their efficacy as a pre-emergent herbicide compared to an industry standard.
Efficacy of the fertilizers on the Bermudagrass Site was evaluated by applying, treatments 1-8 to 4 replications of 1 m×2 m bermudagrass plots set up as a randomized complete block. Nature Safe was applied as a granular, while ammonium sulfate and remaining products were applied as split liquid treatments sprayed out using a CO2 boom sprayer set to deliver a volume of 1 gallon/1000 ft^2. Turfgrass ratings were taken to ensure turf quality/color uniformity.
After 6 weeks all 10 treatments were applied to 4 replications of bermudagrass plots. Products 3-10 were again applied as split liquid treatments sprayed out using a CO2 boom sprayer. Split treatments were re-applied approximately 2 weeks later. Plots were mowed at 0.5 inches before fertilizer application. Irrigation (0.15 inch) was applied following application. Clipping samples were taken approximately monthly for dry weight (grams) determination. […] All data was subject to statistical analysis and significant means were determined.

A further test relates to weeds. As to the kind of experiment: Pre-emergent herbicide efficacy, percent weed cover on bare soil. As to conditions: compared to the untreated control (Table 13). Here is the method: Herbicide efficacy of the fertilizers was evaluated with Granular Lysine (LSG), Liquid Lysine (LSL), and Ronstar G by applying them to 3 replications of 1 m×1 m plots which also included an untreated control. Plots were located in an area of known weed infestation problems. Plots were prepared prior to treatment application by rototilling and applying 3 glyphosate applications to clear up pre-existing weeds and the test was initiated with 0 percent weed in all plots. On approximately monthly intervals percent weed cover ratings were taken. All data was subject to statistical analysis and significant means were determined.

The test system of test [1] is 'Floratam' St. Augustinegrass. As to the kind of experiment: Fertilizer efficacy on St. Augustinegrass (quality, color, clipping weight). The note with it: St. Augustinegrass sites 1 and 2; LSG at high rate (Tables 4-7). Here is the method: as §1
Efficacy of the fertilizers on the St. Augustinegrass Site was evaluated by applying treatments 1-8 to 4 replications of ‘Floratam’ St. Augustinegrass. Plot size was 1 m×2 m set up as a randomized complete block. Initially Nature Safe was applied as a granular, while ammonium sulfate and remaining products were applied as split liquid treatments sprayed out using a CO2 boom sprayer set to deliver a volume of 1 gallon/1000 ft^2. After six weeks all 10 treatments were applied to the 4 replications of ‘Floratam’. Products 3-10 were again applied as split liquid treatments using a CO2 boom sprayer. Split treatments were re-applied approximately 2 weeks later. Plots were mowed at 3.0 inches before fertilizer application. Irrigation (0.15 inch) was applied following each application. Clipping samples were taken approximately monthly for dry weight (grams) determination. […] All data was subject to statistical analysis and significant means were determined.

`Cl.NCCCC[C@H](N)C(=O)O` [LSG, L-lysine monohydrochloride]: the “turfgrass quality and color (scale of 1-10)” value was “best numerical turfgrass scores on most dates” with bermudagrass and “highest numerical average on many rating dates” in test [1]. For the same compound, in the test on weeds, the “weed ratings (percent weed cover)” value was “not significantly different”.

These data come from patent US8623110B2, “Protein and isolated or purified amino acid product containing compositions and uses thereof” (Archer Daniels Midland Company, priority 2007, dated 2014).
